Here are results for 21 molecules from patent publication US20250230171A1 (MOMA Therapeutics, Inc., priority 2023, published 2025).

For assay [1], the target named is biotinylated Avi-POLθ[2-894] (Homo sapiens (Human), UniProt O75417). Briefly: POLθ ATPase assay (ADP-Glo). To be noted: n=2; read-out: Biochemical ATPase ADPGlo IC50. (In general: In ADP-Glo the light output rises with the ADP produced.)
Assay [2] concerns DLD1 WT cells. Briefly: 7-day cell viability assay (CellTiter-Glo), DLD1 parental (WT). The format is cell-based, human. To be noted: Homo sapiens, DLD-1, 168 h, 7-day viability, n=2.
Assay [3] has as its system DLD1 BRCA2 (−/−) cells. Briefly: 7-day cell viability assay (CellTiter-Glo), DLD1 BRCA2 (−/−). Particulars: Homo sapiens, DLD-1, 168 h, 7-day viability, n=2, read-out: Viability IC50 (uM) DLD1 BRCA2 null. The format is cell-based, human. The gist of the method: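 7-day growth assay in DLD1 cells with or without BRCA2; seeding densities chosen to keep log-linear growth. Compound: 10 uM top, 3-fold, 9 points. Endpoint: CTG ATP luminescence at RT.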

biotinylated Avi-POLθ[2-894], sequence (O75417 2-894): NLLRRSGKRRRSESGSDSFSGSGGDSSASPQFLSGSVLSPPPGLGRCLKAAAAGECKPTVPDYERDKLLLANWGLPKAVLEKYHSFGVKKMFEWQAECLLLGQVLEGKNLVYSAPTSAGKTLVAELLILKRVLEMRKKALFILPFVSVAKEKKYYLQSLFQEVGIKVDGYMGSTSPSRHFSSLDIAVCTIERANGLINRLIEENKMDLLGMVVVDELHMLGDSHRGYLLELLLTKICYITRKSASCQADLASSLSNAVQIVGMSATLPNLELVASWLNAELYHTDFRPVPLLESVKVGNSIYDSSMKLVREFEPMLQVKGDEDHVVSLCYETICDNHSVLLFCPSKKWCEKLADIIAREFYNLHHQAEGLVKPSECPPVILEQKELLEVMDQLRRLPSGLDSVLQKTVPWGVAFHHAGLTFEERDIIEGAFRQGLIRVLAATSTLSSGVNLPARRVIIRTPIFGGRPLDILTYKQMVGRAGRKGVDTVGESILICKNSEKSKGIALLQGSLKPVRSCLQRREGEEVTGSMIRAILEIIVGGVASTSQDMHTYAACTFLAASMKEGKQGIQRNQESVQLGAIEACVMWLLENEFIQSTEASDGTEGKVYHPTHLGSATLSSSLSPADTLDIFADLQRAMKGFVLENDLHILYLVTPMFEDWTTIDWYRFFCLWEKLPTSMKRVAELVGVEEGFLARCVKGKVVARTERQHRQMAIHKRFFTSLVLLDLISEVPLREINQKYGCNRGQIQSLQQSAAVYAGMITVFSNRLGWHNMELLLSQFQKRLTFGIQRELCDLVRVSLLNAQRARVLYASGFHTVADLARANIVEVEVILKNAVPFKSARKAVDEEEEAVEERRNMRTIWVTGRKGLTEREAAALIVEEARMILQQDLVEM

Broadly, the IC50 is the concentration at which inhibition is half-maximal. As to `COc1cnc(Cl)cc1-c1cc(C)ncc1C(=O)Nc1nc2c(s1)CN(C(=O)c1cccnc1C(F)F)C2` [Example 39, 2′-chloro-N-(5-(2-(difluoromethyl)nicotinoyl)-5,6-dihydro-4H-pyrrolo[3,4-d]thiazol-2-yl)-5′-methoxy-6-methyl-[4,4′-bipyridine]-3-carboxamide], the 50% inhibitory concentration (IC50) was 1 to 15 nM in assay [1], at least 10 µM in assay [2] and 0.001 to 0.1 µM in assay [3].
In the same order, the values of `COc1cnc(Cl)cc1-c1cc(C)ncc1C(=O)Nc1nc2c(s1)CN(C(=O)c1cnc(C(F)F)cn1)C2` [Example 40, 2′-chloro-N-(5-(5-(difluoromethyl)pyrazine-2-carbonyl)-5,6-dihydro-4H-pyrrolo[3,4-d]thiazol-2-yl)-5′-methoxy-6-methyl-[4,4′-bipyridine]-3-carboxamide] are 1 to 15 nM, 5 to 10 µM and 0.001 to 0.1 µM.
For `COc1cnc(Cl)cc1-c1cc(C)ncc1C(=O)Nc1nc2c(s1)CN(C(=O)c1ccc(C(F)(F)F)nc1)C2` [Example 42, 2′-chloro-5′-methoxy-6-methyl-N-(5-(6-(trifluoromethyl)nicotinoyl)-5,6-dihydro-4H-pyrrolo[3,4-d]thiazol-2-yl)-[4,4′-bipyridine]-3-carboxamide] the same measures were 1 to 15 nM, at least 10 µM and 0.001 to 0.1 µM.
In the case of `COc1cnc(Cl)cc1-c1cc(C)ncc1C(=O)Nc1nc2c(s1)CN(C(=O)c1cc(C(F)(F)F)nn1C)C2` [Example 44, 2′-chloro-5′-methoxy-6-methyl-N-(5-(1-methyl-3-(trifluoromethyl)-1H-pyrazole-5-carbonyl)-5,6-dihydro-4H-pyrrolo[3,4-d]thiazol-2-yl)-[4,4′-bipyridine]-3-carboxamide], the IC50 in assay [1] is 1 to 15 nM; in assay [2], at least 10 µM; in assay [3], 0.001 to 0.1 µM.
In the same order, the values of `COc1cnc(Cl)cc1-c1cc(C)ncc1C(=O)Nc1nc2c(s1)CN(C(=O)c1ncc(C)o1)C2` [Example 45, 2′-chloro-5′-methoxy-6-methyl-N-(5-(5-methyloxazole-2-carbonyl)-5,6-dihydro-4H-pyrrolo[3,4-d]thiazol-2-yl)-[4,4′-bipyridine]-3-carboxamide] are 1 to 15 nM, 2 to 5 µM and 0.001 to 0.1 µM.
In the same order, the values of `COc1cnc(Cl)cc1-c1cc(C)ncc1C(=O)Nc1nc2c(s1)CN(C(=O)c1nn(C)c3c1CCC3)C2` [Example 47, 2′-chloro-5′-methoxy-6-methyl-N-(5-(1-methyl-1,4,5,6-tetrahydrocyclopenta[c]pyrazole-3-carbonyl)-5,6-dihydro-4H-pyrrolo[3,4-d]thiazol-2-yl)-[4,4′-bipyridine]-3-carboxamide] are 1 to 15 nM, 5 to 10 µM and 0.001 to 0.1 µM.
In the same order, the values of `COc1cnc(Cl)cc1-c1cc(C)ncc1C(=O)Nc1nc2c(s1)CN(C(=O)[C@H]1CC[C@@H](OC)CC1)C2` [Example 48, 2′-chloro-5′-methoxy-N-(5-((1s,4s)-4-methoxycyclohexane-1-carbonyl)-5,6-dibydro-4H-pyrrolo[3,4-d]thiazol-2-yl)-6-methyl-[4,4′-bipyridine]-3-carboxamide] are 1 to 15 nM, at least 10 µM and 0.001 to 0.1 µM.
In the case of `COc1cnc(Cl)cc1-c1cc(C)ncc1C(=O)Nc1nc2c(s1)CN(C(=O)c1cc(C)nn1C)C2` [Example 49, 2′-chloro-N-(5-(1,3-dimethyl-1H-pyrazole-5-carbonyl)-5,6-dihydro-4H-pyrrolo[3,4-d]thiazol-2-yl)-5′-methoxy-6-methyl-[4,4′-bipyridine]-3-carboxamide], the IC50 in assay [1] was 1 to 15 nM; in assay [2], at least 10 µM; in assay [3], 0.001 to 0.1 µM.
For `COc1cnc(Cl)cc1-c1cc(C)ncc1C(=O)Nc1nc2c(s1)CN(C(=O)c1cc(C)n(C(F)F)n1)C2` [Example 52, 2′-chloro-N-(5-(1-(difluoromethyl)-5-methyl-1H-pyrazole-3-carbonyl)-5,6-dihydro-4H-pyrrolo[3,4-d]thiazol-2-yl)-5′-methoxy-6-methyl-[4,4′-bipyridine]-3-carboxamide] the same measures were 1 to 15 nM, at least 10 µM and 0.001 to 0.1 µM.
In the case of `CCc1cc(C(=O)N2Cc3nc(NC(=O)c4cnc(C)cc4-c4cc(Cl)ncc4OC)sc3C2)n(C)n1` [Example 57, 2′-chloro-N-(5-(3-ethyl-1-methyl-1H-pyrazole-5-carbonyl)-5,6-dihydro-4H-pyrrolo[3,4-d]thiazol-2-yl)-5′-methoxy-6-methyl-[4,4′-bipyridine]-3-carboxamide], the IC50 in assay [1] is 1 to 15 nM; in assay [2], at least 10 µM; in assay [3], 0.001 to 0.1 µM.
Turning to `CCc1cc(C(=O)N2Cc3nc(NC(=O)c4cnc(C)cc4-c4cc(Cl)ncc4OC)sc3C2)nn1C` [Example 58, 2′-chloro-N-(5-(5-ethyl-1-methyl-1H-pyrazole-3-carbonyl)-5,6-dihydro-4H-pyrrolo[3,4-d]thiazol-2-yl)-5′-methoxy-6-methyl-[4,4′-bipyridine]-3-carboxamide], the IC50 in assay [1] was 1 to 15 nM; in assay [2], at least 10 µM; in assay [3], 0.001 to 0.1 µM.
For the molecule `COc1cnc(Cl)cc1-c1cc(C)ncc1C(=O)Nc1nc2c(s1)CN(C(=O)c1cc3n(n1)CCC3)C2` [Example 63, 2′-chloro-N-(5-(5,6-dihydro-4H-pyrrolo[1,2-b]pyrazole-2-carbonyl)-5,6-dihydro-4H-pyrrolo[3,4-d]thiazol-2-yl)-5′-methoxy-6-methyl-[4,4′-bipyridine]-3-carboxamide], the IC50 in assay [1] lay in the range of 1 to 15 nM; in assay [2], 5 to 10 µM; in assay [3], 0.001 to 0.1 µM.
For `COc1cnc(Cl)cc1-c1cc(C)ncc1C(=O)Nc1nc2c(s1)CN(C(=O)C1CC3(C1)CC(F)(F)C3)C2` [Example 64, 2′-chloro-N-(5-(6,6-difluorospiro[3.3]heptane-2-carbonyl)-5,6-dihydro-4H-pyrrolo[3,4-d]thiazol-2-yl)-5′-methoxy-6-methyl-[4,4′-bipyridine]-3-carboxamide] the same measures were 1 to 15 nM, 5 to 10 µM and 0.001 to 0.1 µM.
For `COc1cnc(Cl)cc1-c1cc(C)ncc1C(=O)Nc1nc2c(s1)CN(C(=O)c1nn(C)c(C)c1F)C2` [Example 66] the same measures were 1 to 15 nM, 5 to 10 µM and 0.001 to 0.1 µM.
`COc1cnc(Cl)cc1-c1cc(C)ncc1C(=O)Nc1nc2c(s1)CN(C(=O)c1nc(C)co1)C2` [Example 67, 2′-chloro-5′-methoxy-6-methyl-N-(5-(4-methyloxazole-2-carbonyl)-5,6-dihydro-4H-pyrrolo[3,4-d]thiazol-2-yl)-[4,4′-bipyridine]-3-carboxamide]: the 50% inhibitory concentration (IC50) in assay [1] lay within 1 to 15 nM; in assay [2] it was 0.5 to 2 µM; in assay [3] it was 0.001 to 0.1 µM.
In the case of `COc1cnc(Cl)cc1-c1cc(C)ncc1C(=O)Nc1nc2c(s1)CN(C(=O)c1cc(Cl)n(C)n1)C2` [Example 73, 2′-chloro-N-(5-(5-chloro-1-methyl-1H-pyrazole-3-carbonyl)-5,6-dihydro-4H-pyrrolo[3,4-d]thiazol-2-yl)-5′-methoxy-6-methyl-[4,4′-bipyridine]-3-carboxamide], the IC50 in assay [1] was 1 to 15 nM; in assay [2] it was 0.001 to 0.5 µM; in assay [3] it was 0.001 to 0.1 µM.
In the same order, the values of `COc1cnc(Cl)cc1-c1cc(C)ncc1C(=O)Nc1nc2c(s1)CN(C(=O)c1nn(C)c(C)c1Cl)C2` [Example 74, 2′-chloro-N-(5-(4-chloro-1,5-dimethyl-1H-pyrazole-3-carbonyl)-5,6-dihydro-4H-pyrrolo[3,4-d]thiazol-2-yl)-5′-methoxy-6-methyl-[4,4′-bipyridine]-3-carboxamide] are 1 to 15 nM, 0.001 to 0.5 µM and 0.001 to 0.1 µM.
In the same order, the values of `COc1cnc(Cl)cc1-c1cc(C)ncc1C(=O)Nc1nc2c(s1)CN(C(=O)c1cc(Cl)ccn1)C2` [Example 78, 2′-chloro-N-(5-(4-chloropicolinoyl)-5,6-dihydro-4H-pyrrolo[3,4-d]thiazol-2-yl)-5′-methoxy-6-methyl-[4,4′-bipyridine]-3-carboxamide] are 1 to 15 nM, 5 to 10 µM and 0.001 to 0.1 µM.
In the same order, the values of `COc1cnc(C(=O)N2Cc3nc(NC(=O)c4cnc(C)cc4-c4cc(Cl)ncc4OC)sc3C2)o1` [Example 79, 2′-chloro-5′-methoxy-N-(5-(5-methoxyoxazole-2-carbonyl)-5,6-dihydro-4H-pyrrolo[3,4-d]thiazol-2-yl)-6-methyl-[4,4′-bipyridine]-3-carboxamide] are 1 to 15 nM, 0.5 to 2 µM and 0.001 to 0.1 µM.
For the molecule `COc1cnc(Cl)cc1-c1cc(C)ncc1C(=O)Nc1nc2c(s1)CN(C(=O)c1c(C)cnn1C)C2` [Example 81, 2′-chloro-N-(5-(1,4-dimethyl-1H-pyrazole-5-carbonyl)-5,6-dihydro-4H-pyrrolo[3,4-d]thiazol-2-yl)-5′-methoxy-6-methyl-[4,4′-bipyridine]-3-carboxamide], the IC50 in assay [1] is 1 to 15 nM; in assay [2], at least 10 µM; in assay [3] it was 0.001 to 0.1 µM.
For `COc1cnc(Cl)cc1-c1cc(C)ncc1C(=O)Nc1nc2c(s1)CN(C(=O)c1cnn(C)c1C(F)(F)F)C2` [Example 84, 2′-chloro-5′-methoxy-6-methyl-N-(5-(1-methyl-5-(trifluoromethyl)-1H-pyrazole-4-carbonyl)-5,6-dihydro-4H-pyrrolo[3,4-d]thiazol-2-yl)-[4,4′-bipyridine]-3-carboxamide] the same measures were 1 to 15 nM, at least 10 µM and 0.001 to 0.1 µM.
